Values joined by “and” are separate entries in the source; they are usually repeats but may differ in a detail not shown here. Equal values may be shown once.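 These data come from cells grown in 96-well plates and exposed to compound for 48 hours at five concentrations. Abbreviation: GI50, concentration required for 50% inhibition of growth. TGI is the concentration that stops growth completely.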
Assays:
Test in all cases: DTP human tumour cell line panel, 48 h
SK-MEL-2 melanoma = tested on: SK-MEL-2 melanoma
PC-3 prostate = tested on: PC-3 prostate
HCC-2998 colon = tested on: HCC-2998 colon
CCRF-CEM leukemia = tested on: CCRF-CEM leukemia
M14 melanoma = tested on: M14 melanoma
OVCAR-5 ovarian = tested on: OVCAR-5 ovarian
NCI-H226 lung = tested on: NCI-H226 lung
NCI/ADR-RES ovarian = tested on: NCI/ADR-RES ovarian
KM12 colon = tested on: KM12 colon
UACC-257 melanoma = tested on: UACC-257 melanoma

Row | SMILES | GI50 (SK-MEL-2 melanoma) | TGI (SK-MEL-2 melanoma) | GI50 (PC-3 prostate) | TGI (PC-3 prostate) | GI50 (HCC-2998 colon) | GI50 (CCRF-CEM leukemia) [µM] | TGI (CCRF-CEM leukemia) | GI50 (M14 melanoma) | TGI (M14 melanoma) [µM] | GI50 (OVCAR-5 ovarian) | TGI (OVCAR-5 ovarian) [µM] | GI50 (NCI-H226 lung) | TGI (NCI-H226 lung) | GI50 (NCI/ADR-RES ovarian) | TGI (NCI/ADR-RES ovarian) [µM] | GI50 (KM12 colon) [µM] | TGI (KM12 colon) | GI50 (UACC-257 melanoma) | TGI (UACC-257 melanoma) | TGI (HCC-2998 colon)
1 | Nc1c(C(=O)Nc2ccccc2)sc2nc3c(cc12)CCCCCC3 | 0.857 µM | 8.89 µM | 0.44 µM | > 100 µM | 0.485 µM | 0.345 | > 100 µM | 0.233 µM | 3.15 | 0.699 µM | 16.9 | 0.652 µM | 12.7 µM | 0.332 µM | 3.32 | 0.398 | 17.6 µM | 3.1 µM | 28.9 µM | 
2 | CCC1=C(C)/C(=C/c2[nH]c(C)c(C(=O)CCCCC(=O)OC)c2C)N=C1c1ccc[nH]1 | 19.4 µM | 46.2 µM | 4.4 µM | 18 µM | 22.3 µM | 0.204 | 6.63 µM | 18.7 µM | 58.8 | 21.1 µM | > 67.2 | 17.6 µM | 51.3 µM | 33.2 µM | > 96.4 | 16.6 | > 77.4 µM | 16.1 µM | 44.2 µM | 54.1 µM
3 | S=CN1CCCCC1 |  | > 100 µM |  | > 100 µM |  |  | > 100 µM |  | > 100 |  | > 100 |  | > 100 µM |  | > 100 |  | > 100 µM |  | > 100 µM | > 100 µM
4 | Cc1cc2c(c3c1c1ccccc1n3C)C(=O)C=CC2=O |  | 51.9 µM |  | 36.3 µM |  |  | > 24 µM |  | 88 |  | > 100 |  | > 100 µM |  | > 100 |  | 57.9 µM |  | 69 µM | > 92.5 µM
5 | CS(=O)(=O)c1ccc(Oc2cc(F)cc(C#N)c2)c2c1[C@H](O)[C@H](F)[C@@H]2F | > 100 µM | > 100 µM | > 100 µM | > 100 µM | > 100 µM | > 100 | > 100 µM | > 100 µM | > 100 | > 100 µM | > 100 | > 100 µM | > 100 µM | > 100 µM | > 100 | > 100 | > 100 µM | > 100 µM | > 100 µM | > 100 µM
6 | Cn1c(C(N)=O)cc2c1-c1nc(Nc3ccccc3)ncc1CCC2 | 5.42 µM | 23.1 µM | 5.19 µM | 41.6 µM | 10.3 µM | 6.21 | > 100 µM | 4.73 µM | 41.1 | 2.54 µM | 25.1 | 0.902 µM | 33.7 µM | 6.3 µM | 49.8 | 1.48 | 18.3 µM | 19.7 µM | 88.7 µM | 33.3 µM
7 | O=[N+]([O-])c1cnc(Sc2ccncn2)c([N+](=O)[O-])c1 | 16.8 µM | 32.9 µM | 15.1 µM | 29.2 µM | 18.4 µM | 1.21 | 4.47 µM | 5.81 µM | 19 | 16.3 µM | 31.7 |  |  | 16.6 µM | 33.7 | 20.9 | 55.1 µM | 1.78 µM | 3.38 µM | 36.2 µM
8 | Cc1ccc(C)c(NC(=O)C(=O)C2C(=O)C3=C(CC2(C)C)Nc2ccccc2S3)c1 (stereo not drawn) |  | > 100 µM |  | > 100 µM |  |  | > 100 µM |  | > 100 |  | > 100 |  | > 100 µM |  | > 100 |  | > 100 µM |  | > 100 µM | > 100 µM
9 | COC(=O)/C=C/c1cc(O)c2c(c1)C(C(=O)OC)C(c1ccc(O)c(O)c1)O2 (stereo not drawn) | 0.454 µM and 0.093 µM | 35.2 µM and > 55 µM | 0.573 µM and 0.817 µM | 69 µM and 65.8 µM | 1.53 µM and 0.558 µM | 0.0892 | 22.5 µM and > 100 µM | 0.131 µM and 0.0279 µM | > 41.3 | 4.28 µM and 2.95 µM | > 100 | 2.93 µM and 3.86 µM | 24.3 µM and > 100 µM | 0.11 µM and 0.0614 µM | > 100 | 0.395 | 20.7 µM and 16.6 µM | 11.5 µM and 4.5 µM | 63.3 µM and 48.7 µM | 72.7 µM and > 46.9 µM
10 | O=C(Nc1ccc(S(=O)(=O)Nc2nccs2)cc1)c1cccnc1Nc1cccc(Cl)c1 |  |  | 14.3 µM | 43 µM | 14.1 µM | 23.4 | > 100 µM | 15.7 µM | 34.9 | 17.6 µM | 44.8 | 21.9 µM | 98.7 µM | 15.6 µM | 45.7 | 10.3 | 22.9 µM | 18.8 µM | 43.6 µM | 27.9 µM
11 | O=C(/C=C/c1ccco1)c1ccc(Nc2nc(Nc3ccc(F)cc3)nc(Nc3ccc(Cl)cc3)n2)cc1 | > 49.8 µM | > 100 µM | 1.54 µM | > 37.9 µM | 38.1 µM | > 37.8 | > 94.4 µM | 13.5 µM | 56.9 | > 100 µM | > 100 | > 35.4 µM | > 82.2 µM | 26.1 µM | > 100 | 16.7 | 43.4 µM | 15.2 µM | > 57.4 µM | > 100 µM
12 | COc1cc2oc(=O)cc(C)c2cc1[N+](=O)[O-] |  | 58 µM |  | > 67.6 µM |  |  | > 100 µM |  | 37.9 |  | > 79 |  | 26.9 µM |  | > 79.3 |  | > 57.3 µM |  | 33.5 µM | 22.2 µM
13 | O=C(Nc1ccc(Cl)c([N+](=O)[O-])c1)Nc1nc2ccccc2s1 | 2.37 µM | 5.32 µM | 3.43 µM | 13 µM | 3.03 µM | 3.88 | 20.8 µM | 11.3 µM | 33 | 4.49 µM | 19.3 | 4.06 µM | 17.3 µM | 2.86 µM | 11.9 | 2.82 | 8.32 µM | 2.4 µM | 6.99 µM | 13.1 µM
14 | CC(C)(C)[OH+][O-].[O-]c1ccc(Cl)cc1C=Nc1ccc(Cl)cc1[O-].[O]=[V] | 11.5 µM | 28.2 µM | 26.1 µM | > 100 µM | 11.2 µM | 3.93 | 35.3 µM | 13.3 µM | 76.2 | 18.4 µM | 47.3 |  |  | 29.1 µM | > 100 | 10.8 | 32 µM | 13.9 µM | 36.4 µM | 25.7 µM

— PubChem BioAssay (NCI)
